Patent US20060084628A1, “Combination therapy for treating viral infections” (priority 2004, published 2006)
Read-outs that look alike come from different tables or passages of the source.

Key:
HBV = assay: Efficacy of daily dosing for HBV; assay type: in vivo, human; conditions: 5 mg QD dose
Procedure: (§1) From the foregoing results, a therapeutic window of Elvucitabine was identified. It has been determined that a 5 mg QD dose is effective for HBV and, therefore, a plasma AUCss/24 of 300 μg·h/L was identified as the efficacy threshold.

HIV = assay: In vitro IC50 for HIV; assay type: cell-based; conditions: Human immunodeficiency virus 1
Procedure: as §1

[1] = PK/PD relationship: toxicity threshold and therapeutic window (simulated concentrations vs observed ANC); set-up: species or system human
Excerpt: Pharmacokinetics and pharmacodynamics modeling was used to explore potential dosing regimens for Elvucitabine. A pharmacokinetics (PK) model was developed to describe both the plasma concentration-time data and excreted urinary amounts from previously completed studies with Elvucitabine. With the PK model in hand and pharmacodynamics (PD) results of previously completed studies, the relationship of PK and PD from an efficacy and toxicity standpoint is obtained. From the results of the PK and PD studies, a therapeutic window of Elvucitabine is defined and simulated dosing regimens ranging from 5 mg BID to 100 mg Q1 week were explored using ADAPT II® Pharmacokinetic and Pharmacodynamic Systems Analysis Software. From the simulated dosing regimen results, ten dosing regimens were identified allowing maintenance therapy with Elvucitabine at levels effective against both HIV and HBV while avoiding bone toxicity.
FIG. 5 provides a plot of the mean observed ANC and a simulated concentration-time profile for the 5 mg QD dose. As shown by the graph, the toxicity threshold is not met by the dosing regimen. As provided in FIG. 6, the 20 mg QD dose crosses the toxicity threshold at about 1008 hours.
as §1

[2] = Hematology (ANC, white blood cell count) in 12 week study in HBV patients; assay type: in vivo, human
Procedure: Pharmacodynamics of Elvucitabine was explored by analysis of hematology (absolute neutrophil count, ANC) data obtained from a 12 week study in HBV patients. FIG. 3 illustrates the change in mean white blood cell count from baseline for three dosages of Elvucitabine (5 mg, 20 mg, and 50 mg), 100 mg 3TC, and placebo. […] FIG. 4 is a graphic representation of the change in absolute neutrophils from baseline for the same study. Table 2 provides absolute neutrophil count at 10^9/L for the three doses resulting in a baseline estimated as the mean ANC of about 4×10^9/L. A 25 percent decrease in the mean ANC corresponds to about 3×10^9/L, the threshold for the start of toxicity.

[3] = Population PK analysis of plasma and urine data, healthy subjects, 1×20 mg tablet PO (ACH443-011); conditions: human, in vivo
Procedure: The PK model created included an individual compartmental PK analysis using ADAPT-II® and Population PK analysis using an iterative two-stage population modeling technique (IT2S®) of plasma and urine data from a study of healthy subjects, n=29, 1×20 mg tablet PO (ACH443-011). FIG. 1 illustrates the PK model of Elvucitabine according to a three compartment model characterized by two absorption peaks, each associated with a lag (Tlag1 and Tlag2) time and a first order absorption rate constant (Ka1 and Ka2).
FIG. 2 illustrates an example of individual fit using a Population PK analysis (IT2S).

**Q.** Which “efficacy for HBV” value (HBV) does the source give for `Nc1nc(=O)n([C@H]2C=C[C@@H](CO)O2)cc1F` [Elvucitabine, 4-amino-5-fluoro-1-((2R,5 S)-5-(hydroxymethyl)-2,5-dihydrofuran-2-yl)pyrimidin-2(1H)-one] here?
**A.** effective

**Q.** What about the IC50 (HIV; corresponds to 4.8 nM, read-out: in vitro IC50 for HIV, as concentration) of the same molecule?
**A.** 1.08 ng/mL

**Q.** What about the IC50 (HIV; read-out: in vitro IC50 for HIV) of the same molecule?
**A.** 4.8 nM

**Q.** What about the “central compartment (plasma) Cmin correlating with onset of toxicity” value [1] of the same molecule?
**A.** ≥ 23 ng/mL

**Q.** What about the “toxicity threshold (mean ANC about 3×10^9/L)” value ([1]; 5 mg QD, FIG. 5) of the same molecule?
**A.** not met

**Q.** What about the “time at which toxicity threshold (mean ANC about 3×10^9/L) is crossed” value ([1]; 20 mg QD, FIG. 6) of the same molecule?
**A.** about 1008 hours

**Q.** And the “time at which toxicity threshold (mean ANC about 3×10^9/L) is reached” value ([1]; 50 mg QD, FIG. 7)?
**A.** 378 hours

**Q.** And the Cmin for efficacy ([1]; HIV, based on in vitro IC50)?
**A.** ≥ 2 ng/mL

**Q.** What about the “plasma AUCss/24 efficacy threshold” value ([1]; from 5 mg QD effective for HBV) of the same molecule?
**A.** 300 ng·h/mL

**Q.** What about the “Cmax in deepest (P1) compartment at onset of toxicity (ANC <3×10^9/L)” value ([1]; human) of the same molecule?
**A.** > 40 μg/L

**Q.** What about the “Absolute Neutrophil Count (ANC), Mean” value ([2]; 5 mg PO daily (n = 17), Week 0) of the same molecule?
**A.** 4.1 10^9/L

**Q.** And the “Absolute Neutrophil Count (ANC), Mean” value ([2]; 5 mg PO daily (n = 17), Week 2)?
**A.** 3.4 10^9/L

**Q.** And the “Absolute Neutrophil Count (ANC), Mean” value ([2]; 5 mg PO daily (n = 17), Week 4)?
**A.** 3.4 10^9/L

**Q.** And the “Absolute Neutrophil Count (ANC), Mean” value ([2]; 5 mg PO daily (n = 17), Week 8)?
**A.** 3.5 10^9/L

**Q.** What about the “Absolute Neutrophil Count (ANC), Mean” value ([2]; 5 mg PO daily (n = 17), Week 12) of the same molecule?
**A.** 3.6 10^9/L

**Q.** And the “Absolute Neutrophil Count (ANC), Mean” value ([2]; 20 mg PO daily (n = 20), Week 0)?
**A.** 3.8 10^9/L

**Q.** And the “Absolute Neutrophil Count (ANC), Mean” value ([2]; 20 mg PO daily (n = 20), Week 2)?
**A.** 3.7 10^9/L

**Q.** What about the “Absolute Neutrophil Count (ANC), Mean” value ([2]; 20 mg PO daily (n = 20), Week 4) of the same molecule?
**A.** 3.2 10^9/L

**Q.** And the “Absolute Neutrophil Count (ANC), Mean” value ([2]; 20 mg PO daily (n = 20), Week 8)?
**A.** 2.8 10^9/L

**Q.** What about the “Absolute Neutrophil Count (ANC), Mean” value ([2]; 20 mg PO daily (n = 20), Week 12) of the same molecule?
**A.** 2.7 10^9/L

**Q.** What about the “change in mean white blood cell count from baseline” value ([2]; 50 mg (highest dose), HBV patients, FIG. 3) of the same molecule?
**A.** significant decrease

**Q.** And the “Absolute Neutrophil Count (ANC), Mean” value ([2]; 50 mg PO daily (n = 19), Week 0)?
**A.** 4.1 10^9/L

**Q.** And the “Absolute Neutrophil Count (ANC), Mean” value ([2]; 50 mg PO daily (n = 19), Week 2)?
**A.** 3.1 10^9/L

**Q.** What about the “Absolute Neutrophil Count (ANC), Mean” value ([2]; 50 mg PO daily (n = 19), Week 4) of the same molecule?
**A.** 2.3 10^9/L

**Q.** And the “Absolute Neutrophil Count (ANC), Mean” value ([2]; 50 mg PO daily (n = 19), Week 8)?
**A.** 2.2 10^9/L

**Q.** What about the “Absolute Neutrophil Count (ANC), Mean” value ([2]; 50 mg PO daily (n = 19), Week 12) of the same molecule?
**A.** 2.6 10^9/L

**Q.** What about the Vd [3] of the same molecule?
**A.** 1600 L

**Q.** What about the “fraction of drug excreted unchanged in urine” value [3] of the same molecule?
**A.** about 40%

**Q.** What about the half-life ([3]; distribution (λ2) half-life) of the same molecule?
**A.** 30 h

**Q.** What about the half-life ([3]; early distribution (λ1) half-life) of the same molecule?
**A.** 0.59 h

**Q.** What about the half-life ([3]; elimination (λz) half-life) of the same molecule?
**A.** 175 h

**Q.** And the CLnr/F ([3]; po)?
**A.** 9.51 L/h

**Q.** What about the Fu ([3]; po) of the same molecule?
**A.** 39.6%

**Q.** And the Vc/F ([3]; po)?
**A.** 30.6 L

**Q.** What about the Vp1/F ([3]; po) of the same molecule?
**A.** 1232 L

**Q.** And the Vp2/F ([3]; po)?
**A.** 369 L

**Q.** And the “oral clearance (CL/F)” value ([3]; po)?
**A.** 16 L/h

**Q.** What about the CL renal ([3]; po, 20 mg) of the same molecule?
**A.** 105 mL/min

**Q.** What about the CL/F ([3]; po, 20 mg) of the same molecule?
**A.** 15.8 L/h

**Q.** And the Vd/F ([3]; population PK, healthy subjects, 20 mg tablet PO, read-out: Vss/F)?
**A.** 1630 L
